These results are taken from patent US8329686B2, “Isatin analogues and uses therefor” (Washington University, priority 2006, dated 2012).

Like-named read-outs stand apart in the source and are kept apart here.

What all share (format): biochemical
Test [1] deals with T1, caspase-3 (Homo sapiens, UniProt P42574).
T1 construct: purchased Sigma-Aldrich (St. Louis, Mo.)
T1 sequence (P42574 29-175 limits assumed): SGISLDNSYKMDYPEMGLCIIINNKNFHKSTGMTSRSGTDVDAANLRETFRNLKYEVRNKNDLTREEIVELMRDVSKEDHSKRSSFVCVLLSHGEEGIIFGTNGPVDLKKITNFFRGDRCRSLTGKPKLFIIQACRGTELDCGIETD
T1 sequence (P42574 176-277 limits assumed): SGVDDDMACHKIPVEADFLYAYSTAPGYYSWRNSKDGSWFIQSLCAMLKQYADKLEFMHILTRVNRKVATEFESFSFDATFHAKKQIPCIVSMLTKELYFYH
Put plainly: Enzyme inhibition assay, caspase 3 (fluorogenic Ac-DEVD-AMC).

Test [2] deals with T1, caspase-3. Put plainly: Enzyme kinetic studies versus Ac-DEVD-AMC. On the procedure: Enzyme Kinetic Studies. The inhibition profile for compound 21c was determined for caspase-3 in the assay buffer. The concentration of Ac-DEVD-AMC was varied from 6.25 to 100 μM, and the concentration of 21c was varied from 0 to 20 nM. The kinetic parameters of 21c were obtained by fitting initial-rate data to
[formula] where v is the observed velocity, S is the substrate concentration, Vm is the velocity at saturating substrate, Km is the Michaelis constant of the substrate, I is the inhibitor concentration, and Ki is the dissociation constant of the inhibitor from the E·I complex. The data were analyzed using GraFit 4.0 (Erithacus Software, Staines, U.K.)
Kinetic studies were also conducted in order to determine the mechanism of inhibition of caspase-3 activity by compound 21c.

The target in a further test is T2, caspase 7 (Homo sapiens, UniProt P55210).
T2 construct: purchased Sigma-Aldrich (St. Louis, Mo.)
T2 sequence (P55210 24-198 limits assumed): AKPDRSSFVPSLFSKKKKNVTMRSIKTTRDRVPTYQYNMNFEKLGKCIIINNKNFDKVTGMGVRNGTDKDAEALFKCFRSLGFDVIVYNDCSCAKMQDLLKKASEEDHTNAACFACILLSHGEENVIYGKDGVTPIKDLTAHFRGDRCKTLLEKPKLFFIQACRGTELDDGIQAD
T2 sequence (P55210 207-303 limits assumed): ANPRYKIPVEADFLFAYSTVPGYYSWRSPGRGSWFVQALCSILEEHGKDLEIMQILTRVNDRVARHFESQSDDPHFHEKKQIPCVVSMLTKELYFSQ
Put plainly: Enzyme inhibition assay, caspase 7 (fluorogenic Ac-DEVD-AMC).

The target of a further test is T3, caspase 8 (Homo sapiens, UniProt Q14790).
T3 construct: purchased Sigma-Aldrich (St. Louis, Mo.)
T3 sequence (Q14790 217-374 limits assumed): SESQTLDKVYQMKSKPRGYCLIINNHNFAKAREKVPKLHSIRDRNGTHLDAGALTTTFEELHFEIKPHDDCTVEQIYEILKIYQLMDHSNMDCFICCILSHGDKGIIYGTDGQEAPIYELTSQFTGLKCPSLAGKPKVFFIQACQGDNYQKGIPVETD
T3 sequence (Q14790 385-479 limits assumed): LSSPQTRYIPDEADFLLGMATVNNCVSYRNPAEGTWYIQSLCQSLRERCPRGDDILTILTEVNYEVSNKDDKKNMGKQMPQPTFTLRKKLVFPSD
Description: Enzyme inhibition assay, caspase 8 (fluorogenic Ac-IETD-AMC).

A further test has as its target T4, caspase 1 (Homo sapiens, UniProt P29466).
T4 construct: purchased BIOMOL Research Laboratories (Plymouth Meeting, Pa.)
T4 sequence (P29466 120-297 limits assumed): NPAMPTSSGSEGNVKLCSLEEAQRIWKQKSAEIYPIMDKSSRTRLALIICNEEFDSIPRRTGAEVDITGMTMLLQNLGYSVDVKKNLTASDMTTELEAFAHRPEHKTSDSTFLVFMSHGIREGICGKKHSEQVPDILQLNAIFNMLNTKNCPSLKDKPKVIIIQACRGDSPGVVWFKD
T4 sequence (P29466 317-404 limits assumed): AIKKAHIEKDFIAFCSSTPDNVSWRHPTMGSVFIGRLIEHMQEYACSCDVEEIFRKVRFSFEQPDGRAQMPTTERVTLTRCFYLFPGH
Description: Enzyme inhibition assay, caspase 1 (fluorogenic Ac-YVAD-AMC).

The next test concerns the target T5, caspase 6 (Homo sapiens, UniProt P55212).
T5 construct: purchased Sigma-Aldrich (St. Louis, Mo.)
T5 sequence (P55212 24-179 limits assumed): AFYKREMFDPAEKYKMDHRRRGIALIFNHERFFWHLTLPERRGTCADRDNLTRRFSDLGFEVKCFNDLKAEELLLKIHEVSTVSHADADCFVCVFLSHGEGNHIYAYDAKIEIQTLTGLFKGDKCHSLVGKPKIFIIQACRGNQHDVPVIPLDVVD
T5 sequence (P55212 194-293 limits assumed): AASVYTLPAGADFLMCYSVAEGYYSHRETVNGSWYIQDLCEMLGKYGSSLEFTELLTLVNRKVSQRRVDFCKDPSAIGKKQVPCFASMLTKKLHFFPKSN
Put plainly: Enzyme inhibition assay, caspase 6 (fluorogenic Ac-VEID-AMC).

Test [3] deals with T1, caspase-3. Description: Reversibility assay (gel filtration).
Description: Then the mixtures were run through the gel filtration column (Bio-Spin 6 Tris columns from Bio-Rad Laboratories, Hercules, Calif.) to remove the free compounds according to the manufacture's instruction. Briefly, 50 μl of the incubation mixture was loaded on the top of the column. The column was then centrifuged at 1000×g for 4 min at 4° C. The resulting elutant was designated as elutant A (for no treatment sample), B (for Z-DEVD-FMK-treated sample) or C (for 30d-treated sample). The elutant was assayed for caspase 3 activity as described in enzyme inhibition assays above. Briefly, 40 μl of the elutant, 60 μl assay buffer and 100 μl substrate (10 μM Ac-DEVD-AMC) were incubated for 1 hour at 37° C. Amount of AMC released was determined using a Victor microplate fluorometer. The recovered caspase-3 activity after gel filtration (%) was calculated.

The term IC50 denotes the midpoint of a concentration-inhibition curve. By Ki is commonly meant the dissociation constant of the complex between target and ligand, obtained from inhibition or displacement.

Description for caspase 7: (§1) Enzyme Assays. Inhibition of recombinant human caspase-3 and other caspases by the isatin analogues was assessed using a fluorometric assay by measuring the accumulation of a fluorogenic product, 7-amino-4-methylcoumarin (7-AMC).
(§2) Enzyme Inhibition Assays. Recombinant human caspases (3, 6, 7, and 8) and their peptide-specific substrates (Ac-DEVDAMC, Ac-VEID-AMC, Ac-DEVD-AMC, and Ac-IETD-AMC, respectively) were purchased from Sigma-Aldrich (St. Louis, Mo.) with the exception of caspase 1 and its substrate (Ac-YVAD-AMC), which were obtained from BIOMOL Research Laboratories (Plymouth Meeting, Pa.). The enzymatic activity of caspases was determined by measuring the accumulation of the fluorogenic product 7-amino-4-methylcoumarin (AMC). All assays were prepared in 96-well format at a volume of 210 μL per well and consisted of 100 mM Na+ HEPES (pH 7.4), 10% sucrose, 100 mM NaCl, 0.1% CHAPS, 5 mM 2-mercaptoethanol, 2 mM EDTA, 10 μM Ac-YVAD-AMC (caspase 1); 20 mMNa^+ HEPES (pH 7.4), 10% sucrose, 100 mMNaCl, 0.1% CHAPS, 2 mM EDTA, 10 μM Ac-DEVD-AMC (caspase 3); 20 mM Na^+ HEPES (pH 7.4), 10% sucrose, 100 mM NaCl, 0.1% CHAPS, 2 mM EDTA, 10 μM Ac-VEID-AMC (caspase 6); 20 mM Na+ HEPES (pH 7.4), 100 mM NaCl, 10% sucrose, 0.1% CHAPS, 5 mM 2-mercaptoethanol, 2 mM EDTA, 10 μM Ac-DEVD-AMC (caspase 7); 20 mM Na+ HEPES (pH 7.4), 10% sucrose, 100 mM NaCl, 0.1% CHAPS, 2 mM EDTA, 10 μM Ac-IETD-AMC (caspase 8).
(§3) Recombinant caspases were first assayed to determine the optimal concentration for each experiment. Optimal concentrations were based in the linear range of the enzyme activation curves. Peptide inhibitors with known IC50 values were tested together with the compounds as a control for each caspase assay. […] Peptide and nonpeptide inhibitors were dissolved in DMSO, and a 2 serial dilution was performed prior to screening in order to obtain desired concentrations. 10 μL was added to each well containing 100 μL caspase solution and allowed to incubate on ice for 30 min. […] The final concentration of DMSO in all wells was 5% of the total volume. In caspase-1 and caspase-7 assays, 10 mM 2-mercaptoethanol was added to the substrate solution for full activation of the enzymes.
(§4) Compounds were tested in duplicate, and IC50 curves were calculated for all inhibitors assayed. Final IC50s were the average of three independent experiments.
Description for caspase 8: as §1, §2, §3, §4

Regarding `COc1ccc(CN2C(=O)C(=O)c3cc(S(=O)(=O)N4CCCC4COc4cccnc4)ccc32)cc1` (centres unmarked) [Compound 21c, 1-(4-Methoxybenzyl)-5-(2-(pyridin-3-yl-oxymethyl)-pyrrolidine-1-sulfonyl)-1H-indole-2,3-dione], the IC50 on caspase-3 [1] (read-out: IC50 for caspase-3) is 3.9 nM; on caspase 7 (Table 6, read-out: IC50 (nM) caspase-7) it was 15.1 ± 1.2 nM; at caspase 8 (Table 6, read-out: IC50 (nM) caspase-8), over 50000 nM; at caspase 1 (Table 6, read-out: IC50 (nM) caspase-1) it was over 10000 nM; on caspase 6 (Table 6, read-out: IC50 (nM) caspase-6), over 5000 nM. Besides, the inhibition constant (Ki) on caspase-3 [2] (competitive versus Ac-DEVD-AMC, read-out: calculated Ki value) is 4.4 nM. The “mechanism of inhibition of caspase-3 activity” value at caspase-3 [2] (versus Ac-DEVD-AMC) is “competitive inhibition”.
For the compound `COc1ccc(CN2C(=O)C(=C(C#N)C#N)c3cc(S(=O)(=O)N4CCCC4COc4cccnc4)ccc32)cc1` (centres unmarked) [Compound 30d, 2-{1-(4-Methoxy-benzyl)-2-oxo-5-[2-(pyridin-3-yloxymethyl)-pyrrolidine-1-sulfonyl]-1,2-dihydro-indol-3-yl-idene}-malononitrile], the 50% inhibitory concentration (IC50) at caspase-3 [1] (IC50 (nM) Casp-3, Table 7) is 7.8 ± 1.5 nM; against caspase-3 [1] (IC50 (nM) Caspase 3, Table 2), 7.8 ± 1.5 nM; at caspase-3 [1] (IC50 for caspase-3), 7.8 nM; against caspase 7 (IC50 (nM) Casp-7, Table 7), 29.6 ± 1.4 nM; on caspase 7 (IC50 (nM) Caspase 7, Table 2) it was 29.6 ± 1.4 nM; at caspase 7 (read-out: IC50 for caspase-7), 15.1 nM. The half-inhibitory concentration (IC50) is over 50000 nM at caspase 8 (Table 2, read-out: IC50 (nM) Caspase 8); over 50000 nM at caspase 8 (Table 7, read-out: IC50 (nM) Casp-8); over 50000 nM on caspase 8 (read-out: IC50 for caspase-8); 3900 nM against caspase 1; 3900 ± 530 nM at caspase 1 (IC50 (nM) Casp-1, Table 7); 2700 to 3200 nM at caspase 1 (read-out: IC50 for caspase-1). The IC50 is 610 ± 113 nM on caspase 6 and 515 to 770 nM at caspase 6 (read-out: IC50 for caspase-6). For the same compound, at caspase-3 [3] (3 μM, 1 hour on ice, before gel filtration), the “caspase 3 activity after incubation with inhibitor” value is “fully inhibited”. Besides, at caspase-3 [3] (elutant compared to untreated elutant A), the “recovered caspase-3 activity after gel filtration” value is given as “full caspase 3 activity”.
